Where two headings read alike, the source gives them in different places. Peptide text beside a SMILES is read from it.
How the values were obtained:
[1] = molecular target: human SSTR-5 (Homo sapiens, UniProt P35346); experiment: Radioligand binding, inhibition of 125I-Tyr11-SRIF binding to cloned human SSTR-5; settings: cloned human receptor
Procedure: (§1) The somatostatin analogs were tested for their potency in inhibition of the binding of ^125 I-Tyr^11 -SRIF (based on the method described by Raynor et. al., Molecular Pharmacology 43, 838-844, 1993) to membrane preparations expressing the transmembranal somatostatin receptors (SSTR-1,2,3,4 or 5). The receptor preparations used for these tests were either from the cloned receptors selectively and stably expressed in Chinese Hamster Ovary (CHO) cells or from cell lines naturally expressing the SSTRs. […] The binding reactions were filtered, the filters were washed and the bound radioactivity was counted in gamma counter. […] In order to validate positive signals of the binding tests, and to eliminate non-specific signals, samples of irrelevant peptides, such as GnRH, that were synthesized and handled using the same procedures, were tested in the same assays as negative control samples.

[2] = tested on: SSTR-2; experiment: Radioligand binding, inhibition of 125I-Tyr11-SRIF binding to cloned SSTR-2
Procedure: as §1

[3] = tested on: plasma lipase release; experiment: Bombesin stimulated plasma lipase release in rats; assay type: in vivo, rat
Procedure: (§2) Inhibition of either insulin or amylase release has been reported (Reisine and Bell, ibid.) to be highly correlated with affinity to the SST receptor subtype SSTR-5, while i inhibition of pituitary growth hormone (GH) release, pancreatic glucagon, and gastric acid secretion were SSTR-2 mediated. […] These doses were compared to the synthetic analog SMS-201 995 administered at a dose of 10 μg/kg.
(§3) Male Wister rats (weighing 200-220 g) were anaesthetized with pentobarbital (60 mg/kg) by the intraperitoneal (IP) route. The animals were allowed free access to food and water until 18 h before experiment, when all food (but not the water) was withdrawn. Furthermore the animals were housed in cages with wide mesh wire bottoms to prevent coprophagia (feeding on excrement).
(§4) After cannulation, a 0.7 ml sample of blood was drawn from the jugular vein, and transferred into an Eppendorf tube containing 20 IU heparin solution 5000 IU/ml. One minute later the peptides were administered subcutaneously (SC in 0.2 ml of 0.9% NaCl). Control rats were pretreated with 0.2 ml of 0.9% NaCl. At time 0 (5 min. after collection of baseline blood sample-1) a bombesin infusion (50 nmol/kg/hr) was started in all animals. Additional blood samples were collected at constant time intervals of 60, 90 and 120 min. during bombesin infusion.
(§5) Blood samples were collected into ice-cold tubes containing heparin (20 IU/ml) and were centrifuged (1500 g×10 min.). Plasma samples were frozen and kept at -20° C. until assayed for amylase and lipase.
Lipase levels were measured in plasma with a commercial kit (Randox™).

[4] = tested on: plasma amylase release; experiment: Bombesin stimulated plasma amylase release in rats; assay type: in vivo, rat
Procedure: as §2, §3, §4, §5
Amylase levels were measured in plasma with the commercial (Raichem™) Amylase reagent.

[5] = tested on: Growth Hormone (GH) release; experiment: Inhibition of growth hormone release in rats; assay type: in vivo, rat; settings: Sprague-Dawley male rats, 10 mg/kg subcutaneously, versus saline
Procedure: In vivo determination of the pharmacodynamic properties of cyclic peptide SST analogs was carried out in rats, according to known procedures. Inhibition of Growth Hormone (GH) release as a result of peptide administration was measured in Sprague-Dawley male rats. […] Time course profiles for GH release under constant experimental conditions were measured.
Adult male Sprague-Dawley rats, specific pathogen free (SPF), weighing 200-350 g, were maintained on a constant light-dark cycle (light from 8:00 to 20:00 h), temperature (21±3° C.), and relative humidity (55±10%). Laboratory chow and tap water were available ad libitum. On the day of the experiment, rats were anesthetized with pentobarbitone (50 mg/kg). […] A single blood sample (0.6 ml) was taken from the exposed cannulated jugular vein for the determination of the basal GH levels (-15 min.). Immediately thereafter the appropriate peptide treatment was administered. […] A physiological saline solution (0.9% NaCl) was administered as a control. All peptides were administered subcutaneously in a final volume of 0.2 ml. Further sampling was carried out at 15, 30, 60, and 90 minutes after peptide administration. […]
Rat growth hormone (rGH) [^125 I] levels were determined by means of a radioimmunoassay kit (Amersham). […] All samples were measured in duplicate.

[6] = tested on: insulin release; experiment: Glucose induced insulin release in rats; assay type: in vivo, rat
[7] = In vitro biostability in human serum (HPLC); assay type: in vitro ADME; settings: 37° C.
Procedure: Analogs are tested for stability by their resistance to enzymatic degradation by incubation in serum or in tissue homogenate, separation of the proteins and recording of the peptide peaks by HPLC before and after incubation. […] These peaks are separated and characterized by mass spectrometry, N-terminal sequence and comparison to purified peptide peaks.
The assay was based on HPLC determination of peptide degradation as a function of time in serum at 37° C.

[8] = molecular target: T1, rat SSTR-5 (Rattus norvegicus, UniProt P30938); experiment: Radioligand binding, inhibition of 125I-Tyr11-SRIF binding to cloned rat SSTR-5
T1 sequence (P30938 1-363): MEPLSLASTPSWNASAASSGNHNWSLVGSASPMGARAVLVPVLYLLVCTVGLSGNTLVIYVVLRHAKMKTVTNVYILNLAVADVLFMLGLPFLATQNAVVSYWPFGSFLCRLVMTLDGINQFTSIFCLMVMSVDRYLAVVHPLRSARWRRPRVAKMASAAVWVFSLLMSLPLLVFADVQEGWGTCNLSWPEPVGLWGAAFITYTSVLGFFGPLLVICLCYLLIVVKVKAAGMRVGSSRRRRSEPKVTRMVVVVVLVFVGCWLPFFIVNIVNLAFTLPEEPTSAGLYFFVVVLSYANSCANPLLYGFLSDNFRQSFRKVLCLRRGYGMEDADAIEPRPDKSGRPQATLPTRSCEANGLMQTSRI
Procedure: as §1

[9] = molecular target: SSTR-3 (Homo sapiens, UniProt P32745); experiment: Radioligand binding, inhibition of 125I-Tyr11-SRIF binding to cloned SSTR-3
Procedure: as §1

[10] = Lack of toxicity in rats; assay type: in vivo, rat; settings: for respiratory disturbances, stereotyped behavior, muscle tone: rats observed for 4 hours post administration
Procedure: PTR 3013 was not toxic to the rats even with doses of 4 mg/kg. These two doses are several orders of magnitude higher than those needed to elicit the desired endocrine effect. The peptides dissolved in saline produced no untoward side effects on the central nervous system, cardiovascular system, body temperature, nor on the periphery of the animals.

[11] = tested on: somatostatin receptors (SSTR-1,2,3,4 or 5); experiment: Radioligand binding assay, negative control peptides; settings: irrelevant peptides tested in the same assays
Procedure: as §1

[12] = molecular target: T1, rat SSTR-5; settings: Table 22; known SST analogs, literature values; read-out: IC50 value rSSTR 5; cited from earlier work
[13] = Table 21, inhibition of iodinated SRIF-14 binding, CHO cells, tested at 10^-6, 10^-7, 10^-8 M, read-out: IC50 SSTR-2

Chain of SSTR-3 (P32745 whole entry, species assumed): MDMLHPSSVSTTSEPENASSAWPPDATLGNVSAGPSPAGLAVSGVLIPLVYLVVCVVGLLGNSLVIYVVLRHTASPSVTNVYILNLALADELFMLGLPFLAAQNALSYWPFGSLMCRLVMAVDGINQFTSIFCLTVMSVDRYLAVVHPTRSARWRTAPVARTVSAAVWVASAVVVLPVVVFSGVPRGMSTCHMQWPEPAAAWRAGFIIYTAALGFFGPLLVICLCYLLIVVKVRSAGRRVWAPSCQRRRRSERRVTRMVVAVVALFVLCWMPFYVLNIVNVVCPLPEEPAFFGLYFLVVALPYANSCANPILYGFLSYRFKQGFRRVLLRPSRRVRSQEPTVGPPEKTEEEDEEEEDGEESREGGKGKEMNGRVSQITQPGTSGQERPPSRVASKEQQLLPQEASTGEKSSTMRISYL
Chain of human SSTR-5 (P35346 whole entry): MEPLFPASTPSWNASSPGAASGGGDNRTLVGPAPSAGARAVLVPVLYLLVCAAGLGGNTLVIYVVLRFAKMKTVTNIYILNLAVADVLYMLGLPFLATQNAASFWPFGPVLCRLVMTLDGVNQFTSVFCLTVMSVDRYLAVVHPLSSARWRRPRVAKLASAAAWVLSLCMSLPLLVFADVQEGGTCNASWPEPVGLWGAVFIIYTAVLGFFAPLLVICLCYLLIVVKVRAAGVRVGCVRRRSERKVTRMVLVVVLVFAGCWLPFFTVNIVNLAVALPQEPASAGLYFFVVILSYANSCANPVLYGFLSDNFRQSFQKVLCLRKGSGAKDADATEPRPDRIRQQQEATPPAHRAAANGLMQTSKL

Molecule: CC(C)[C@@H]1NC(=O)[C@H](CCCCN)NC(=O)[C@@H](Cc2c[nH]c3ccccc23)NC(=O)[C@H](Cc2ccc(O)cc2)NC(=O)[C@H](Cc2ccccc2)NCCNC(=O)CCCN([C@@H](Cc2ccccc2)C(=O)N[C@H](C(N)=O)[C@@H](C)O)C1=O [PTR 3046, cyclo(PheN2^6 -Tyr^7 -DTrp^8 -Lys^9 -Val^10 -PheC3^11)-Thr^12 -NH2] (HELM PEPTIDE1{[O=C([C@H](Cc1ccccc1)NCCN[*:3])[*:2]].Y.[dW].K.V.[O=C([C@H](Cc1ccccc1)N(CCCC(=O)[*:3])[*:1])[*:2]].T.[am]}$PEPTIDE1,PEPTIDE1,1:R3-6:R3$$$V2.0)
- affinity to human SSTR-5, in words [1]: high affinity
- binding to SSTR-2, in words [2]: does not bind
- IC50 [2, 13]: 500 nM
- IC50 ([2]; text summary of Example 85 binding data, read-out: affinity to SSTR-2): > 1000 nM
- inhibition of bombesin-stimulated lipase secretion ([3]; 3 μg/kg SC, 90 min.): 33%
- inhibition of bombesin-stimulated lipase secretion ([3]; 3 μg/kg SC, 120 min.): 26%
- inhibition of bombesin-stimulated lipase secretion ([3]; 12.5 μg/kg SC, 90 min.): 30%
- inhibition of bombesin-stimulated lipase secretion ([3]; 12.5 μg/kg SC, 120 min.): 25%
- inhibition of bombesin-stimulated lipase secretion ([3]; 25 μg/kg SC, 90 min.): 51%
- inhibition of bombesin-stimulated lipase secretion ([3]; 25 μg/kg SC, 120 min.): 35%
- inhibition of bombesin induced release of plasma amylase ([4]; 3 μg/kg SC, 90 min.): 31%
- inhibition of bombesin induced release of plasma amylase ([4]; 3 μg/kg SC, 120 min.): 23%
- inhibition of bombesin induced release of plasma amylase ([4]; 25 μg/kg SC, 90 min.): 60%
- inhibition of bombesin induced release of plasma amylase ([4]; 25 μg/kg SC, 120 min.): 52%
- inhibition of growth hormone release [5]: not significantly different from saline
- decrease in insulin release ([6]; Wister rats, 7 μg/kg subcutaneously, glucose 0.5 g/kg IV, versus control rats, p<0.05): 43%
- potency on insulin release relative to Octreotide ([6]; in vivo, from present study and manufacturer's ED 50 of Octreotide): 4 times

Molecule: C[C@@H](O)[C@H](NC(=O)CN1CCNC(=O)CCN(C(=O)[C@H](N)Cc2ccccc2)CC(=O)N[C@@H](Cc2ccccc2)C(=O)N[C@H](Cc2c[nH]c3ccccc23)C(=O)N[C@@H](CCCCN)C(=O)N[C@@H]([C@@H](C)O)C1=O)C(N)=O [PTR 3002] (HELM PEPTIDE1{[dF].[O=C(CN(CCC(=O)[*:3])[*:1])[*:2]].F.[dW].K.T.[O=C(CN(CCN[*:3])[*:1])[*:2]].T.[am]}$PEPTIDE1,PEPTIDE1,2:R3-7:R3$$$V2.0)
- in vitro biostability (peptide degradation as a function of time) [7]: as stable as Octreotide, is more stable than the corresponding non-cyclic structure, and is much more stable than SRIF

Molecule: C[C@@H](O)[C@H](NC(=O)CN1CCCNC(=O)CN(C(=O)[C@H](N)Cc2ccccc2)CC(=O)N[C@@H](Cc2ccccc2)C(=O)N[C@H](Cc2c[nH]c3ccccc23)C(=O)N[C@@H](CCCCN)C(=O)N[C@@H]([C@@H](C)O)C1=O)C(N)=O [PTR 3004]
- IC50 [8]: > 2000 nM
- IC50 [9]: > 10000 nM

Molecule: CC(=O)N1CCCNC(=O)CCN(CC(=O)N[C@@H](Cc2ccccc2)C(=O)N[C@H](C(N)=O)[C@@H](C)O)C(=O)[C@H](CCCCN)NC(=O)[C@@H](Cc2c[nH]c3ccccc23)NC(=O)[C@H](Cc2ccccc2)NC(=O)C1 [PTR 3013] (HELM PEPTIDE1{[ac].[O=C(CN(CCCN[*:3])[*:1])[*:2]].F.[dW].K.[O=C(CN(CCC(=O)[*:3])[*:1])[*:2]].F.T.[am]}$PEPTIDE1,PEPTIDE1,2:R3-6:R3$$$V2.0)
- IC50 [2, 13]: > 10000 nM
- respiratory disturbances, stereotyped behavior, muscle tone [10]: no respiratory disturbances
- toxicity ([10]; rats, doses of 4 mg/kg): not toxic

Molecule: C[C@@H](O)[C@H](NC(=O)CN1CCCNC(=O)CCN(C(=O)[C@H](N)Cc2ccccc2)CC(=O)N[C@@H](Cc2ccccc2)C(=O)N[C@H](Cc2c[nH]c3ccccc23)C(=O)N[C@@H](CCCCN)C(=O)N[C@@H]([C@@H](C)O)C1=O)C(N)=O [PTR 3007] (HELM PEPTIDE1{[dF].[O=C(CN(CCC(=O)[*:3])[*:1])[*:2]].F.[dW].K.T.[O=C(CN(CCCN[*:3])[*:1])[*:2]].T.[am]}$PEPTIDE1,PEPTIDE1,2:R3-7:R3$$$V2.0)
- IC50 [8]: > 2000 nM
- IC50 [9]: > 10000 nM
- respiratory disturbances, stereotyped behavior, muscle tone [10]: no respiratory disturbances

Molecule: GnRH: irrelevant peptide tested as negative control sample
- binding activity of negative control samples [11]: no binding activity

Molecule: DPhe^5 -cyclo(Cys^6 -Tyr^7 -DTrp^8 -Lys^9 -Val^10 -Cys^11)-Trp^12 -NH2 [RC-160]
- IC50 [12]: 0.2 nM

Molecule: C[C@@H](O)[C@H](NC(=O)[C@H](Cc1ccccc1)NC(=O)CN1CCNC(=O)CCN(C(=O)[C@H](N)Cc2ccccc2)CC(=O)N[C@@H](Cc2ccccc2)C(=O)N[C@H](Cc2c[nH]c3ccccc23)C(=O)N[C@@H](CCCCN)C1=O)C(N)=O [PTR 3019] (HELM PEPTIDE1{[dF].[O=C(CN(CCC(=O)[*:3])[*:1])[*:2]].F.[dW].K.[O=C(CN(CCN[*:3])[*:1])[*:2]].F.T.[am]}$PEPTIDE1,PEPTIDE1,2:R3-6:R3$$$V2.0)
- IC50 [2, 13]: > 10000 nM

Molecule: C[C@@H](O)[C@@H]1NC(=O)[C@H](CCCCN)NC(=O)[C@@H](Cc2c[nH]c3ccccc23)NC(=O)[C@H](Cc2ccccc2)NC(=O)[C@@H](NC(=O)[C@H](N)Cc2ccccc2)CSSC[C@@H](C(=O)N[C@H](CO)[C@@H](C)O)NC1=O [Octreotide, DPhe^5 -cyclo(Cys^6 -Phe^7 -DTrp^5 -Lys^9 -Thr^10 -Cys^11)-Thr^12 -ol]
- IC50 [12]: 0.2 nM

— patent US5770687A, “Comformationally constrained backbone cyclized somatostatin analogs” (Peptor Limited, priority 1996, dated 1998)
